Measured values reported in patent publication US20080167385A1 (priority 2004, published 2008).
pKd: −log10 of the molar value. “Also recorded” adds a separate entry of the source.

Columns and labels:
[1] = target: T1, CDK4/cyclin D1 (Homo sapiens, UniProt P11802+P24385); assay: CDK4/cyclin D1 kinase assay (in vitro pRb phosphorylation); type: biochemical
T1 construct: His6 (N); made in house; host or cells: CDK4: Sf9 insect cells (baculovirus); GST-pRb: E. coli BL21(DE3)
Experimental: For the 96-well format in vitro kinase assay GST-pRb was used immobilized on glutathione-Sepharose beads.
CDK4/cyclin D1 kinase assay: The reaction mixture consisted of 1 μM of CDK4 and cyclin D1, 5 μg GST-pRb, 100 mM ATP and 0.2 μCi ^32P-ATP. The kinase reaction was carried out for 10 min at 30° C., the reaction was stopped with the addition of sample buffer and after heating the sample was resolved on 10% SDS-PAGE. The aouthoradiography images were scanned and quantified using QuickScan software. The IC50 values were determined using GraFit software.

[2] = tested on: PCNA-dependent DNA replication; details: cited from earlier work
[3] = target: T1, CDK4/cyclin D1; details: background; cited from earlier work
[4] = target: T2, PCNA (Homo sapiens, UniProt P12004); details: cited from earlier work
T2 construct: made in house; host or cells: Escherichia coli BL21(DE3), pT7-PCNA
T2 sequence (P12004 whole entry): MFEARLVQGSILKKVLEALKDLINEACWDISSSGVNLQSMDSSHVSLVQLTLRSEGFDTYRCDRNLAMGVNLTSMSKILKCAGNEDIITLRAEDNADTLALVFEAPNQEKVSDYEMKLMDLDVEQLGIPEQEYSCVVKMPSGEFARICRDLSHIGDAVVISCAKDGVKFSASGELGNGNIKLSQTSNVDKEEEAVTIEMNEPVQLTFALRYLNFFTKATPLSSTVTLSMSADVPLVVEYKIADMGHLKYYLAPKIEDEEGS

T1 sequence (P11802 whole entry): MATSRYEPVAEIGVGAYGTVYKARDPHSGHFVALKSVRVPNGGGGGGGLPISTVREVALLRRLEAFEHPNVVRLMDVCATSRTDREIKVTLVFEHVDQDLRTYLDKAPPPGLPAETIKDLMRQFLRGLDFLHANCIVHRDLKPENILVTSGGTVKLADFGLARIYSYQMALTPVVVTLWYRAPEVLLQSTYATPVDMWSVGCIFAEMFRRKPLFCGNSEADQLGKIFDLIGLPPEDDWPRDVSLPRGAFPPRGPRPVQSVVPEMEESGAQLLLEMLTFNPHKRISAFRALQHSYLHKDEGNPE
T1 sequence (P24385 whole entry): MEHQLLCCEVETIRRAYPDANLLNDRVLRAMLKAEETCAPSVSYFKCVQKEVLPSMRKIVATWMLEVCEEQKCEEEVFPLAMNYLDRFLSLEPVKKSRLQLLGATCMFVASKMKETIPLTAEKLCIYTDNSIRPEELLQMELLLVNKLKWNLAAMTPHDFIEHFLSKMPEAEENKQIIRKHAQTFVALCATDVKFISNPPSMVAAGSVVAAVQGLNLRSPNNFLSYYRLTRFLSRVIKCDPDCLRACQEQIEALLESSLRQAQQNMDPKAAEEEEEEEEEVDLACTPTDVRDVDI

Substance	CDK/cyclin inhibitory activity [1]	inhibition of DNA replication in vitro (in words) [2]	inhibition of CDK function [3]	affinity for PCNA (in words) [4]	enthalpy of binding to PCNA ([4]; isothermal calorimetry) [kcal/mol]	entropic contribution to PCNA binding ([4]; isothermal calorimetry) [cal mol^−1 ° C.^−1]	pKd ([4]; read-out: Kd of binding to PCNA)	Ka of binding to PCNA ([4]; isothermal calorimetry)
SAVLQKKITDYFHPKK [CM peptide, hybrid containing 12 residues from the C-terminus of Pogo, flanked by 4 residues from DNA ligase I]	devoid of CDK/cyclin inhibitory activity; also recorded: does not inhibit CDK function	potency very similar to that of p21(141-160); also recorded: efficient inhibitor	unable to inhibit CDK function	nanomolar affinity; also recorded: affinity very similar to that of the p21(141-160) peptide	-9.52	0.61	7.00	–
p21D149A: site point mutant p21(141-160)D149A (KRRQTSMTAFYHSKRRLIFS; UniProt P38936 141-160, looked up, variant D149A) [reference compound]	–	–	–	–	–	–	–	7.8×10^5
